Consider 2 compounds from patent US20190298796A1, “Therapeutic Compositions from the Brevinin-1 Family of Peptides and Uses Thereof” (priority 2016, published 2019).

As usually defined, the MIC is the lowest concentration that inhibits growth of the organism. Lower therefore signals a more susceptible organism.

Data set [1] has as its system Staphylococcus aureus MTCC 9542. In kind it is cell-based. Conditions: lowest peptide concentration required to kill entire bacteria, 24 hrs, NA = not active up to the highest concentration tested.
Source text: (§1) Antimicrobial activity: Broth dilution method [39] was used to assess the antimicrobial activity of the peptides. Bacterial strains used for in vitro antibacterial assay were Staphylococcus aureus (MTCC 9542), Bacillus subtilis (MTCC 14416), Bacillus coagulans (ATCC 7050), Methicillin-resistant Staphylococcus aureus (MRSA) (ATCC 43300), Streptococcus mutans (MTCC 497), Streptococcus gordonii (MTCC 2695), Vibrio cholerae (MCV09), Escherichia coli (ATCC 25922), Vancomycin-resistant enterococcus (VRE) (ATCC 29212) and gram-negative fish pathogens Aeromonas hydrophila (ATCC 7966) and Aeromonas sobria (ATCC 43979). Bacterial cultures were grown in Muller Hinton broth (MHB) (Hi-media) by overnight incubation at 37° C. with constant shaking. Microbial cultures having 10^6 CFU/ml were made from OD600: 0.6 cultures. 400 μM stock solutions of peptides were prepared in autoclaved double distilled water and diluted in MHB to make concentrations ranging from 0.7 to 100 μM. Bacterial inoculum without peptide was used as the negative control.
Data set [2] has as its system Bacillus subtilis MTCC 14416. In kind it is cell-based. Conditions: lowest concentration killing entire bacteria, 24 hrs.
Source text: as §1
The test system of data set [3] is Bacillus coagulans ATCC 7050. In kind it is cell-based. To be noted: lowest concentration killing entire bacteria, 24 hrs.
Source text: as §1
Data set [4] deals with MRSA ATCC 43300. The class given is cell-based, Methicillin-resistant Staphylococcus aureus. Conditions: lowest concentration killing entire bacteria, 24 hrs.
Source text: as §1
Data set [5] has as its system gram-negative bacteria. In words: MIC range over the tested gram-negative bacteria. In kind it is cell-based.
Source text: as §1
In data set [6] the test system is human erythrocytes. In kind it is cell-based. Conditions: 60 min, at the peptide's MIC for Staphylococcus aureus MTCC 9542 (MIC in parenthesis). How it is done: Hemolytic Activity: Hemolytic assay was carried out as previously described. Briefly, 10% (v/v) suspensions of fresh human erythrocytes in phosphate buffered saline (pH 7.2) were incubated with different concentrations (100 μM-0.7 μM) of B1/1 COOH & B1/2 COOH, B1/1 CONH2 & B1/2 CONH2 and cyclic B1/1 CONH2 & cyclic B1/2 CONH2 and incubated at 3^7° C. for 60 min. The cells were centrifuged (3000×g) for 5 min, and absorbance of the supernatant was measured at 595 nm. Hemolysis caused by 10% Triton X-100 was taken as positive control. Percentage hemolysis was calculated by measuring the mean amount of hemoglobin released as a result of lysis of erythrocyte from three independent experiments.

Data set [7] concerns VRE ATCC 29212. Conditions: lowest concentration killing entire bacteria, 24 hrs.
Source text: as §1

Each structure is given as a SMILES string. In brackets after ≈: the same amount, converted by molar mass. Residues, ends and D or L forms follow the SMILES beside them.

Consider `CC[C@H](C)[C@H](NC(=O)CNC(=O)[C@@H]1CCCN1C(=O)[C@H](Cc1ccccc1)NC(=O)[C@@H](N)Cc1ccccc1)C(=O)N[C@H](C(=O)N[C@@H](CCCCN)C(=O)N[C@H](C(=O)N[C@@H](C)C(=O)NCC(=O)N[C@@H](C)C(=O)N[C@H](C(=O)N[C@@H](CC(C)C)C(=O)N1CCC[C@H]1C(=O)N[C@H](C(=O)N[C@@H](C)C(=O)N[C@H](C(=O)N[C@@H](CS)C(=O)N[C@@H](C)C(=O)N[C@H](C(=O)N[C@H](C(=O)N[C@@H](CCCCN)C(=O)N[C@@H](CCCNC(=N)N)C(=O)N[C@@H](CS)C(=O)O)[C@@H](C)O)[C@@H](C)CC)[C@@H](C)CC)[C@@H](C)O)[C@@H](C)CC)C(C)C)[C@@H](C)CC` [B1/2 COOH] (H-FFPGIIKVAGAILPTAICAITKRC-OH; N-terminus assumed), for which the MIC in data set [1] came out at 12.5 µM (≈ 31.3 µg/mL); in data set [2], 67.5 µM (≈ 169 µg/mL); in data set [3] it was 25 µM (≈ 62.6 µg/mL); in data set [4], 30 µM (≈ 75.1 µg/mL); in data set [7], 50 µM (≈ 125 µg/mL). Also, the “Activity against gram-negative bacteria (MIC range)” value in data set [5] was “not with gram-negative bacteria”. Besides, the “Percentage hemolysis at MIC” value in data set [6] is 25%.
Consider `CC[C@H](C)[C@H](NC(=O)CNC(=O)[C@@H]1CCCN1C(=O)[C@H](Cc1ccccc1)NC(=O)[C@@H](N)Cc1ccccc1)C(=O)N[C@H](C(=O)N[C@@H](CCCCN)C(=O)N[C@H](C(=O)N[C@@H](C)C(=O)N[C@@H](CO)C(=O)N[C@@H](C)C(=O)N[C@H](C(=O)N[C@@H](CC(C)C)C(=O)N1CCC[C@H]1C(=O)N[C@H](C(=O)N[C@@H](C)C(=O)N[C@H](C(=O)N[C@@H](CS)C(=O)N[C@@H](C)C(=O)N[C@H](C(=O)N[C@H](C(=O)N[C@@H](CCCCN)C(=O)N[C@@H](CCCNC(=N)N)C(=O)N[C@@H](CS)C(=O)O)[C@@H](C)O)[C@@H](C)CC)[C@@H](C)CC)[C@@H](C)O)[C@@H](C)CC)C(C)C)[C@@H](C)CC` [B1/1 COOH] (H-FFPGIIKVASAILPTAICAITKRC-OH; N-terminus assumed), for which the MIC is 9.5 µM (≈ 24.1 µg/mL) in data set [1]; 98 µM (≈ 248 µg/mL) in data set [2]; 25 µM (≈ 63.4 µg/mL) in data set [3]; 25 µM (≈ 63.4 µg/mL) in data set [4]; 50 µM (≈ 127 µg/mL) in data set [7]. In addition, in data set [5], the “Activity against gram-negative bacteria (MIC range)” value is “not with gram-negative bacteria”. Further, the “Percentage hemolysis at MIC” value in data set [6] was determined as 20%.
